This note sets out measurements from patent US11759480B2, “Compositions and methods for CAR T cell therapy” (ENDOCYTE, INC., priority 2017, dated 2023).

Some results are limits rather than exact numbers.

For series [1], the system named is MDA-MB-231 tumors. In words: CAR-T number in blood after rescue with EC0923 or fluoresceinamine (Example 31). In kind it is in vivo, NSG mice. The note with it: for earliest time of increased CAR-T count in blood: 10 umol/kg i.v.; for CAR-T number in blood: 10 umol/kg i.v. at sCRS. As for the experimental part: EC17/CAR-T therapy strategy is controllable through bridge displacement by either free folate or free fluorescein. […] Mice from three groups were then euthanized at 8, 12, 24 and 48 hours post injection of EC0923 or fluoresceinamine, and their blood samples were analyzed for CAR-T cell number and cytokine levels. CAR-T cells in blood were stained with anti-human CD45 antibody labeled with APCeF780 (Biolegend) and counted by FACS. CountBright™ Absolute Counting Beads (ThermoFisher Scientific) were mixed into the samples and used as a reference for cell counting.

The test system of series [2] is MDA-MB-231 tumors. In words: Comparison of three rescue reagents (Example 32). The note with it: for order of sCRS severity (from worst to least): 10 hours after rescue, Leucovorin 10, folic acid 10, sodium fluorescein 260 umol/kg; for tumor outcome of rescued mice: single rescue dose, EC17 continued.
Description: To evaluate whether mice with FITC-CAR-T therapy related sCRS can be rescued by using competitors which may displace EC17 from either FITC-CAR-T or FR+ tumor cells, 49 NSG mice bearing MDA-MB-231 tumors (150-250 mm3) were administered with excess FITC-CAR-T cells (8 million), 36 of them were then dosed with 500 nmol/kg EC17 48 hours post CAR-T administration, 6 of them were not dosed with EC17 and were used as “No EC17” control, and 7 of them were dosed with 260 umol/kg sodium fluorescein (no EC17 but Fluorescein) to test its toxicity. […] Each group was i.v. injected with 10 umol/kg of Leucovorin, or 10 umol/kg folic acid, or 260 umol/kg sodium fluorescein, or nothing as an un-rescued control. […] Mouse body weight changes were also monitored as the indication of toxicity. […] To evaluate whether the rescue injections affect the anti-tumor activity of FITC-CAR-T cells, these mice were dosed with 500 nmol/kg EC17 twice per week (days 9, 11, 15, 18, 22, 25, etc.) and the tumor size was monitored.
Another series has as its system MDA-MB-231 cells. In words: Control of CRS with bridge molecules in vivo (Example 43). Also noted: species or system NSG mice. As for the experimental part: Mice were maintained on folic acid-deficient diet (TD.95247, Envigo) in order to reduce the level of folic acid in mice to a physiological levels found in humans. Tumors were measured every other day with calipers, and tumor volume was calculated according to equation: Tumor volume=½(L×W^2) where L is the longest axis of the tumor and W is the axis perpendicular to L. Mouse blood was also collected to measure cytokine levels (e.g. IL-2, IL-6, IFNγ, and TNFα) using LEGENDplex bead-based immunoassay (Biolegend, CA) and systemic toxicity was monitored by measuring body weight loss. All animal care and use followed by National Institutes of Health (NIH) guidelines and all experimental protocols were approved by the Purdue Animal Care and Use Committee.

Series [3] deals with MDA-MB-231 tumors. In words: Rescue ability of competitors during CAR T cell treatment (Example 23). In kind it is in vivo, mice. The note with it: for time until mice looked normal / time until mice started to move and look for food / time until mice were active again: one i.v. dose 10 μmoles/kg at sCRS. As for the experimental part: When severe cytokine release syndrome was observed, one dose of EC0923 (folate) or untethered fluorescein (both at 10 μmoles/kg) was introduced intravenously to rescue mice (FIG. 16). Mice with one dose of EC0923 or fluorescein started to move and look for food after 4 hours, were active again in 24 hours, and looked normal in 4 days. EC17 administration was then continued. Control mice without EC0923 or fluorescein didn't move after 4 hours, and had to be euthanized because of the sickness. […] All mice tested for cytokine production were injected with 8 million CAR-T cells.

The test system of series [4] is MDA-MB-231 solid tumor xenografts. In words: Control of CAR T cell activation in vivo: break, FA competitor or both (Example 19). The protocol: Five study groups were designed to test whether anti-FITC CAR T cell activation can be controlled via temporal termination of FITC-ligands, by administering a competitor small molecule, or a combination approach of both discontinuing of FITC-ligands and/or administering an FA competitor. The first group was treated by administering anti-FITC CAR T cell with phosphate-buffered saline (PBS) as a negative control. Every other day over the course of the study, the second, third, fourth and fifth groups were treated with anti-FITC CAR T cell mixed with FITC-Folate (500 nmole/kg). […] Mouse bodyweight was measured regularly to test for toxicity.

Series [5] shares this test system. In kind it is in vivo. As for the experimental part: MDA-MB-231 cells were subcutaneously injected into the shoulders of NSG mice (Jackson Laboratory) to establish solid tumor xenografts. When tumor volume reached around 50-100 mm^3, anti-FITC CAR T cells (15×10^6 cells) were intravenously introduced into tumor-bearing mice. Twenty NSG mice were divided into four study groups (5 animals in each group). The first group was treated with anti-FITC CAR T cells with phosphate-buffered saline (PBS) as a negative control. The second, third, and fourth groups were treated with anti-FITC CAR T cells with FITC-Folate (500 nmole/kg) every other day. Once a significant toxicity (e.g. serious loss of body weight) was detected, these groups were treated with either: continued FITC-Folate administration (second group); discontinuation of FITC-Folate administration until the mice recovered (third group); or a mixture of 100-fold excess of EC0923 (i.e. free folate) and FITC-Folate until the mice recovered (fourth group). The body weight was measured regularly to monitor toxicity. In addition, the blood concentration of interferon (IFN)-gamma for each treatment group was measured to monitor the degree of anti-FITC CAR T activation. Finally, tumor volume was measured to identify anti-tumor efficacy in each treatment group.

The test system of a further series is MDA-MB-231. In words: Effect of Folate-FITC on CAR-T cell number and serum cytokines (Example 21). In kind it is in vivo, NSG mice. The note with it: 500 nmole/kg, 10^7 CAR T cells, Day 6. As for the experimental part:
The triple negative human breast cancer cell line (i.e. MDA-MB-231) was subcutaneously implanted into the shoulders of immunodeficient (e.g. NSG) mice. When tumor volume reached around 50-100 mm^3, anti-FITC CAR T cells (10^7 cells) were intravenously introduced with either FITC-folate (500 nmole/kg) or PBS. To monitor CAR T cell proliferation and pro-inflammatory cytokine production, mice blood was collected at Day 6. CAR T cell proliferation was evaluated by staining a whole blood sample with anti-human CD3 antibody (Biolegned) and detecting GFP expression on the CD3 positive T cell population. Pro-inflammatory cytokine production was measured by a bead-based immunoassay (Legendplex kit from biolegend).

The subject of series [6] is severe cytokine release syndrome in mice bearing tumors. In words: Rescue ability of EC0923 during CAR T cell treatment (Example 18). In kind it is in vivo. As for the experimental part: CAR T cells were introduced into mice bearing tumors and EC17 was also introduced (i.v.) three times per week. When severe cytokine release syndrome was observed, one dose of EC0923 at 10 μmoles/kg was introduced to rescue mice. Mice were monitored for 4 more days, and some were euthanized to evaluate organs. Mice with one dose of EC0923 started to move and look for food after 4 hours, and their spleens and livers were red. Control mice without EC0923 didn't move after 6 hours, and their spleens and livers were pale. Mice with EC0923 treatment were active again in 24 hours and expected to survive, and were put back to a normal EC17 dosing schedule. Control mice without EC0923 started to move a little in 24 hours, but had to be euthanized to prevent animal suffering. Mice with EC0923 looked normal in 4 days. One of the mice was euthanized and found to have normal colored spleen and liver. […] Other remaining mice with EC0923 were given routine EC17 dosing three times per week, and their tumors disappeared in 4 weeks.

Setting [7] is: within 3 hours, 6 μmole/kg free fluorescein.
The mark [8] stands for this setting: 100-fold excess on days 4 and 6.

`Nc1ccc2c(c1)C(=O)OC21c2ccc(O)cc2Oc2cc(O)ccc21` [fluoresceinamine]: in the series with MDA-MB-231 tumors [1] (10 umol/kg), the “CAR-T displacement compared with EC0923” value is on record as “more CAR-T displacement than folate”. For the same compound, in the series on MDA-MB-231 tumors [1], the “earliest time of increased CAR-T count in blood” value stood at 6 h and the “CAR-T number in blood” value is recorded as “increase of CAR-T number in blood circulation”.
Take `Nc1nc2c(c(=O)[nH]1)N(C=O)C(CNc1ccc(C(=O)N[C@@H](CCC(=O)O)C(=O)O)cc1)CN2` (stereo partly shown) [Leucovorin]: in the series on MDA-MB-231 tumors [2], the “order of sCRS severity (from worst to least)” value was “no rescue group>leucovorin rescue group>folic acid rescue group>sodium fluorescein rescue group>no EC17 group” and the “tumor outcome of rescued mice” value is “complete response”.
As for `O=C1OC2(c3ccc(O)cc3Oc3cc(O)ccc32)c2ccccc21` [fluorescein, reference compound], the “time to decrement of plasma IFNγ” value in the series with MDA-MB-231 cells (post fluorescein injection) turned out to be 6 h. Moreover, in the series with MDA-MB-231 cells (setting [7]), the “decrease of plasma IL-2” value was above 50%, the “decrease of plasma IL-6” value is recorded as above 50% and the “decrease of plasma TNF-α” value is given as above 50%. In the series with MDA-MB-231 tumors [3], the “time until mice looked normal” value came out at 4 days; the “time until mice started to move and look for food” value (from here on “time until mice started”) turned out to be 4 h; the “time until mice were active again” value was determined as 24 h.
For the compound `Nc1nc(=O)c2nc(CNc3ccc(C(=O)N[C@@H](CCC(=O)O)C(=O)O)cc3)cnc2[nH]1` [EC0923], the “control of CAR T cell mediated toxicity” value in series [4] (100-fold excess with FITC-Folate (FITC-Folate+FA Competitor)) is given as “able to control the degree of CAR T cell activation to alleviate CAR T cell mediated toxicity”; in series [4] (termination of FITC-Folate plus excess free folic acid (Break+FA Competitor)), “better efficacy in decreasing CAR T cell mediated toxicity compared to each approach alone”. Moreover, the IFN-gamma blood concentration entry in series [5] (competitor group) is given as “decreased”. For the same compound, the “survival of mice at the first week of treatment” value in series [5] (competitor group: 100-fold excess of free folate mixed with FITC-Folate at day 4 and day 6) is “all of the mice in both the break and competitor groups survived”.
For the compound `Nc1nc2ncc(CNc3ccc(C(=O)N[C@@H](CCC(=O)O)C(=O)O)cc3)nc2c(=O)[nH]1` [folic acid, reference compound], in the series on MDA-MB-231 cells (setting [8]), the IFNγ level result is listed as “reduced the level of IFNγ”, the body weight result is listed as “rapidly prevented the continuous weight loss” and the “therapeutic potency of CAR T cell therapy” value was “enhanced the therapeutic potency”. In the series on MDA-MB-231 tumors [2], the “order of sCRS severity (from worst to least)” value was “no rescue group>leucovorin rescue group>folic acid rescue group>sodium fluorescein rescue group>no EC17 group” and the “tumor outcome of rescued mice” value is on record as “complete response”.
With FITC-Folate [EC17], in the series on MDA-MB-231, the “anti-FITC CAR T cell proliferation in blood” value is listed as “proliferated significantly” and the “pro-inflammatory cytokines (IL-2, TNF-α, IFN-γ)” value is “significantly produced”.
Consider `Nc1nc2ncc(CNc3ccc(C(=O)N[C@@H](CCCN[C@H](CC(=O)O)C(=O)N[C@H](CC(=O)O)C(=O)O)C(=O)O)cc3)nc2c(=O)[nH]1` [EC0923], for which, in the series with MDA-MB-231 tumors [3], the “time until mice looked normal” value is recorded as 4 days; the “time until mice started” value was found to be 4 h; the “time until mice were active again” value worked out at 24 h. In the series with MDA-MB-231 tumors [3] (rescue treatment, EC17 continued), the “tumor outcome four weeks later” value is reported as “tumors were eliminated”. Moreover, in series [5] (competitor group (100-fold excess EC0923 + FITC-Folate)), the complete response came to 75%. In series [6] (one dose 10 μmoles/kg at sCRS), the “time until mice looked normal” value is reported as 4 days; the “time until mice started” value is 4 h; the “time until mice were active again” value was 24 h. For the same compound, the “time until tumors disappeared” value in series [6] (rescued mice, routine EC17 dosing three times per week resumed) is 4 weeks. For the same compound, in the series on MDA-MB-231 tumors [1], the “earliest time of increased CAR-T count in blood” value is 6 h and the “CAR-T number in blood” value was “increase of CAR-T number in blood circulation”.
